Here are results for three molecules from patent publication US7488825B2 (Kabushiki Kaisha Yakult Honsha, priority 2003, dated 2009).

Where a name gives a salt, the structure may show the parent alone.

The nature of series [1]: Solubility measurement in preparation solution (water solubility). The note with it: hydrochloride; for dissolution amount: preparation solution (D-sorbitol, lactic acid, pH about 3.5), shaken at 22° C. for 30 minutes; for water solubility: pH3.5. In kind it is physicochemical. As to the method: About 0.5 g of b- or c-type crystals were weighed out, suspended in a preparation solution, and shaken at 22° C. for 30 minutes (130 r/min). The mixture was filtered by a membrane filter (0.45 μm). To 1 ml of the filtrate, the preparation solution was added up to 200 mL. 10 μl was aliquoted and analyzed by liquid chromatography. The dissolution amount was obtained on the basis of a calibration curve previously prepared.
Note that the preparation solution used herein was prepared by dissolving 45 g of D-sorbitol in an appropriate amount of distilled water for injection, adding 900 mg of lactic acid, adjusting pH of the solution at about 3.5, and adding distilled water for injection up to 1000 mL.

Series [2] in a line: Change of dissolution state over time (30 mg/mL in preparation solution). In kind it is physicochemical. The note with it: shaken for several minutes.

For `CCc1c2c(nc3ccc(OC(=O)N4CCC(N5CCCCC5)CC4)cc13)-c1cc3c(c(=O)n1C2)COC(=O)[C@]3(O)CC` [No. 3, irinotecan hydrochloride], the dissolution amount in series [1] is not below 100 mg/mL. As to `CCc1c2c(nc3ccc(OC(=O)N4CCC(N5CCCCC5)CC4)cc13)-c1cc3c(c(=O)n1C2)COC(=O)[C@]3(O)CC` [b-type crystals, irinotecan hydrochloride], in series [2], the “temperature needed to dissolve” value was “about 70 °C”. In series [1], this molecule registered a water solubility of 11.4 mg/mL and a dissolution amount of 11.4 mg/mL.

Take `CCc1c2c(nc3ccc(OC(=O)N4CCC(N5CCCCC5)CC4)cc13)-c1cc3c(c(=O)n1C2)COC(=O)[C@]3(O)CC` [c-type crystals, irinotecan hydrochloride]: in series [1], the water solubility was not below 100 mg/mL.
